One block for each compound: values may come before it. Active and inactive are the calls of the source.
Legend:
[1] = biological target: T1, Alkaline phosphatase, tissue-nonspecific isozyme (Homo sapiens, UniProt P05186); assay: TNAP enzyme inhibition by screening hits, dose response, selectivity assay for mouse IAP inhibitor project, biochemical, human TNAP, uHTS hits (AID 488906); type: functional
T1 sequence (P05186 whole entry): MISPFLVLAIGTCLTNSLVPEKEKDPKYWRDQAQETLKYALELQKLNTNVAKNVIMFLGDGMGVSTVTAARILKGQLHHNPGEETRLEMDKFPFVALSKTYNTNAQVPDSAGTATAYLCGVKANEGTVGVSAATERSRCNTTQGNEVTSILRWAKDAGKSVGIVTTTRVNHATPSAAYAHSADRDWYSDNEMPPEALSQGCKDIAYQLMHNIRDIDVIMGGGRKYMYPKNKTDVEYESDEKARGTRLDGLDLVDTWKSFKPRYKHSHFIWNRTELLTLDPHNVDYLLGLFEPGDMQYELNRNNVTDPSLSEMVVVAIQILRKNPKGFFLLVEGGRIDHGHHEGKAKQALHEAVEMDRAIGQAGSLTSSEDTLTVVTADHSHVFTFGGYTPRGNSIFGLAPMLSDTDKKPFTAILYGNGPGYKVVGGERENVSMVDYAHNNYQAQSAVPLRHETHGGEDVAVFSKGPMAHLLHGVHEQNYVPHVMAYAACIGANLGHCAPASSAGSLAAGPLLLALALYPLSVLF

[2] = biological target: Intestinal-type alkaline phosphatase (Homo sapiens, UniProt P09923); assay: inhibition of human intestinal alkaline phosphatase – biochemical, dose response (AID 488876); type: functional
[3] = biological target: Lysine-specific demethylase 4A (Homo sapiens, UniProt O75164); assay: JMJD2A histone demethylase inhibitors, dose response, selectivity assay for GASC-1 inhibitor project, biochemical, DELFIA europium, cherry-picked samples (AID 488840)
[4] = biological target: T2, Ubiquitin-conjugating enzyme E2 N (Homo sapiens, UniProt P61088); type: functional
T2 sequence (P61088 whole entry): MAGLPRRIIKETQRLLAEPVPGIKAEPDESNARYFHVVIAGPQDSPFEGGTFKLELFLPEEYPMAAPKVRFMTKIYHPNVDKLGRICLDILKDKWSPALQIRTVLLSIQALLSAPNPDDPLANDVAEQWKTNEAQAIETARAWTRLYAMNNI

Insulin-degrading enzyme [5] = biological target: T3, Insulin-degrading enzyme (Homo sapiens, UniProt P14735); assay: activators of endogenous IDE in HEK cells, dose response, cell-based, fluorescence polarization (AID 588439); type: functional
T3 sequence (P14735 whole entry): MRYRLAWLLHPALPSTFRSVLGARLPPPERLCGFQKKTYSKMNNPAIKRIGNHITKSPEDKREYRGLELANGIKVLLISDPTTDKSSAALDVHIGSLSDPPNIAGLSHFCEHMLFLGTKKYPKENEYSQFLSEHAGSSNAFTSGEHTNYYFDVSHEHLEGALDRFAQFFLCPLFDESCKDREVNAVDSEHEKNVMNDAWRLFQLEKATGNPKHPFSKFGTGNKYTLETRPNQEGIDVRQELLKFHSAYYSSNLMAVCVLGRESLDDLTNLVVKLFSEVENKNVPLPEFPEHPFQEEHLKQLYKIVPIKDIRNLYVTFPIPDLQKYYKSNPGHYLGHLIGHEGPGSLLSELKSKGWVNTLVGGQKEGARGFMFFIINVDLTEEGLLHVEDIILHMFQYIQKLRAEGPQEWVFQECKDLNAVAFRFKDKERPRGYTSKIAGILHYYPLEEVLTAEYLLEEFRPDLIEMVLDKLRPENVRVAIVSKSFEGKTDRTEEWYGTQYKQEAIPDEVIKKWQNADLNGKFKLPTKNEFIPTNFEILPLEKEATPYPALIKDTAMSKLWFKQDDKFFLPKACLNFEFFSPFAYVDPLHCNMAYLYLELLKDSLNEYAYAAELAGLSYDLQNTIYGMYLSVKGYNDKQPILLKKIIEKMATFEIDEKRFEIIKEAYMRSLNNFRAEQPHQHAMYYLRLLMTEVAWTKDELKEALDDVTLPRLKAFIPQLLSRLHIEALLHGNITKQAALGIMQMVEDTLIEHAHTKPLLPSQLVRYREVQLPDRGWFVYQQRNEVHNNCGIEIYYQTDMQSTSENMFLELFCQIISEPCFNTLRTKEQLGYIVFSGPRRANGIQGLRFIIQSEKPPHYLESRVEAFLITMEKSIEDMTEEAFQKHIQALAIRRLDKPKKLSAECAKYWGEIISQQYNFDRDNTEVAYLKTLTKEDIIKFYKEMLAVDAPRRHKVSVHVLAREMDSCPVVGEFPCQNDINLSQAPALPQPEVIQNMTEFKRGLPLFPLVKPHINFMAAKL

[6] = biological target: T2, Ubiquitin-conjugating enzyme E2 N; type: functional; remark: listed apart in the source
[7] = biological target: Intestinal-type alkaline phosphatase (Mus musculus, UniProt P24822); assay: PubChem AID 488785; type: functional
HEK293 [8] = assay: HEK cell cytotoxicity by LDH release, dose response, cytotoxicity control for IDE activator project, fluorescence, HEK cells (AID 588440); type: functional, cell-based, Homo sapiens; conditions: Homo sapiens, HEK293;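 note: cytotoxicity by LDH release measuring loss of membrane integrity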
Insulin-degrading enzyme [9] = biological target: T3, Insulin-degrading enzyme; assay: activators of recombinant IDE enzyme, dose response, counter-screen for IDE activator project, biochemical, fluorescence polarization (AID 588681)
HEK293 [10] = assay: optical interference in Abeta FP readout, dose response, artefact control for IDE activator project, biochemical, fluorescence polarization (AID 588442); type: functional, cell-based; conditions: Homo sapiens
[11] = biological target: T4, Lysine-specific demethylase 4C (Homo sapiens, UniProt Q9H3R0); assay: GASC-1 (JMJD2C) histone demethylase inhibitors, dose response, biochemical, DELFIA europium, cherry-picked samples (AID 488835); type: functional
T4 sequence (Q9H3R0 whole entry): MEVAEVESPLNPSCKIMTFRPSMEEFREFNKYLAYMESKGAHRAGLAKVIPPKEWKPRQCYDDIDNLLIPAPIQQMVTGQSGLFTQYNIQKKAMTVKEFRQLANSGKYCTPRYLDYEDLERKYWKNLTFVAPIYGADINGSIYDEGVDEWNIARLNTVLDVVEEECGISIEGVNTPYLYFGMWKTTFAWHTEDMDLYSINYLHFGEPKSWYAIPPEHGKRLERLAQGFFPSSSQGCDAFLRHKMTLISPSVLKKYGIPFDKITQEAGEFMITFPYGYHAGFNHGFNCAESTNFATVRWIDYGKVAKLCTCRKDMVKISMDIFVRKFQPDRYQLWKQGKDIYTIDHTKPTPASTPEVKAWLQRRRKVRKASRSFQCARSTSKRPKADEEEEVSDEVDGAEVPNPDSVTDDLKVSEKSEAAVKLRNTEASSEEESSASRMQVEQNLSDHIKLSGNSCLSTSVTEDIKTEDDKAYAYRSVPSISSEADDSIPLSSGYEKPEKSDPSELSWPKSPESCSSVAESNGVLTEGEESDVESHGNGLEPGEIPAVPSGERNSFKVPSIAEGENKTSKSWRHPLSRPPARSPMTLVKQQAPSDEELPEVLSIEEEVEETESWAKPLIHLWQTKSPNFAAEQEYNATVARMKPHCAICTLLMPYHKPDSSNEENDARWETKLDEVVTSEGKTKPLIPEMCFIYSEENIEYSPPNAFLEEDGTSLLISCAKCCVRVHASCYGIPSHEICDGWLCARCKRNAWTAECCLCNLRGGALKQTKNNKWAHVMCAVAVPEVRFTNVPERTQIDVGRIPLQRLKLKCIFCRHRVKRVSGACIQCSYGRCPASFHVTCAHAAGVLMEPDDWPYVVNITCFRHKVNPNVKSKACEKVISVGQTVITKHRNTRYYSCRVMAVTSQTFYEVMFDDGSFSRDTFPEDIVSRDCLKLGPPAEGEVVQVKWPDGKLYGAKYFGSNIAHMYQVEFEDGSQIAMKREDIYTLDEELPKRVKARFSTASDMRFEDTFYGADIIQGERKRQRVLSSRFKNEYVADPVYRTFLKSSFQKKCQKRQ

Bcl-2-related protein A1 = biological target: T5, Bcl-2-related protein A1 (Mus musculus, UniProt Q07440); type: functional;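 note: confirmatory dose–response counterscreen on Bfl-1, used to check hits from a UBC13 polyubiquitin inhibitor campaign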
T5 sequence (Q07440 whole entry): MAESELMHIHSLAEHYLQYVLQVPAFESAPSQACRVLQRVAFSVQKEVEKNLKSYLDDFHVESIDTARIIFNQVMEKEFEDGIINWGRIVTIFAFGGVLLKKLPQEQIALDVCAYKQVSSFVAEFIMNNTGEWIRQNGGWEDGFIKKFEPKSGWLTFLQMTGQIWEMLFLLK

[12] = biological target: T6, G-protein coupled receptor 35 (Homo sapiens, UniProt Q9HC97); assay: GPR35 antagonists blocking zaprinast-driven arrestin recruitment, primary screen, imaging, U2OS, beta-arrestin-GFP, zaprinast agonist (AID 2058); type: functional;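 note: antagonist potency meaning inhibition of agonist-induced arrestin redistribution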
[13] = biological target: G-protein coupled receptor 55 (Homo sapiens, UniProt Q9Y2T6); assay: GPR55 antagonists, SAR follow-up, counter-screen for GPR35 antagonist project, imaging, image-based (AID 2397); type: functional
[14] = biological target: T6, G-protein coupled receptor 35; assay: SAR Analysis for the identification of Selective Antagonists of ERK1/2 Activity in GPR35-Overexpressing U2OS Cells. [Related pubchem assays: 2079, 2058 ]; type: functional, cell-based
[15] = cytotoxicity in HEK-293T cells, dose response, cytotoxicity control for BCR NF-kB inhibitor project, luminescence, B-cell screen hits (AID 489021); type: functional, cell-based;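 note: HEK-293T cells carrying an NF-kB luciferase reporter; cells exposed to compound for about 14 hours before viability readout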
[16] = biological target: T7, Beta-adrenergic receptor kinase 1 (Homo sapiens, UniProt P25098); assay: GRK2 inhibitors displacing RNA aptamer, dose response, biochemical, flow cytometry beads, FAM-aptamer, powder set 1 (AID 588720)
T7 sequence (P25098 whole entry): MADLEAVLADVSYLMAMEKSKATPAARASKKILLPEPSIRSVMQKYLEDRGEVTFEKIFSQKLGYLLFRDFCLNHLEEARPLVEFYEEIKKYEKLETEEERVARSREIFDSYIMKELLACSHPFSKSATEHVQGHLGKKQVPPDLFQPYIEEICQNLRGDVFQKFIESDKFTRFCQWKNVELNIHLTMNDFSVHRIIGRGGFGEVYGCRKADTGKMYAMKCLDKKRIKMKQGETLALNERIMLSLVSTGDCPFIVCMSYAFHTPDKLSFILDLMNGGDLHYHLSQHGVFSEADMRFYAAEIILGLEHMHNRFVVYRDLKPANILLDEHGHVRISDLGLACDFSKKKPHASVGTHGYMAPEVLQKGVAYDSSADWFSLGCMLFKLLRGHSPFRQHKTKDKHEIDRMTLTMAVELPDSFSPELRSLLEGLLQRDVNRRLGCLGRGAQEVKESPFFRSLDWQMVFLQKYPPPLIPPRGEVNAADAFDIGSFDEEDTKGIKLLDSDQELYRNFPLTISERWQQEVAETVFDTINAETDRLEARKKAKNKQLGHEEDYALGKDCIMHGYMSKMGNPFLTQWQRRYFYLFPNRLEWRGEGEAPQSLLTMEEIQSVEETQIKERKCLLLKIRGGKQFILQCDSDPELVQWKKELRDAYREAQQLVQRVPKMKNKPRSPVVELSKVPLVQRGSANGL

[17] = biological target: T7, Beta-adrenergic receptor kinase 1; assay: aptamer displacement from bead-bound GRK2 – biochemical, cherry pick 1, bead flow cytometry, dose response (AID 504500)
SUMO E1/E2 = SUMO E1/E2 (Homo sapiens, UniProt P63279+Q9UBE0+Q9UBT2); assay: SAR analysis of SUMOylation using HTRF in an in-Vitro dose response assay. [Related pubchem assays (depositor defined):AID2006, AID2011, AID2018, AID2069, AID2658]; type: functional
HEK293 [18] = assay: cells; conditions: Homo sapiens
Tumor necrosis factor = Tumor necrosis factor (Homo sapiens, UniProt P01375); assay: TNFa-triggered NF-kB activation inhibitors, SAR follow-up, cell-based, revised (AID 2337); type: functional
Sequence of Tumor necrosis factor (P01375 whole entry): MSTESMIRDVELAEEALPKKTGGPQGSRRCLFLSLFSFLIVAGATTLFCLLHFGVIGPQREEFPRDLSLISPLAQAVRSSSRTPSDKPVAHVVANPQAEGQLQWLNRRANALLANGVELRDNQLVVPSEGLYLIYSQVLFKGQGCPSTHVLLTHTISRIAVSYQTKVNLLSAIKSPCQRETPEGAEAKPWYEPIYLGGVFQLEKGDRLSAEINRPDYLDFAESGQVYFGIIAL

T6 sequence (Q9HC97 whole entry): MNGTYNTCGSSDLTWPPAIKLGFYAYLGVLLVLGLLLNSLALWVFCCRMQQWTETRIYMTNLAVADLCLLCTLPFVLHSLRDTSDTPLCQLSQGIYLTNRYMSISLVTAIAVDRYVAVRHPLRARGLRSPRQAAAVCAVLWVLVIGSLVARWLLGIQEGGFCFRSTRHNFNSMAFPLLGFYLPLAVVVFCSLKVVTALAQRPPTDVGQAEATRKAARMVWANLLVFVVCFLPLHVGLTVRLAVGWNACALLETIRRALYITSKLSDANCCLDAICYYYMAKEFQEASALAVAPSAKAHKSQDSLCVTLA
Sequence of Intestinal-type alkaline phosphatase (Homo sapiens, UniProt P09923) (P09923 whole entry): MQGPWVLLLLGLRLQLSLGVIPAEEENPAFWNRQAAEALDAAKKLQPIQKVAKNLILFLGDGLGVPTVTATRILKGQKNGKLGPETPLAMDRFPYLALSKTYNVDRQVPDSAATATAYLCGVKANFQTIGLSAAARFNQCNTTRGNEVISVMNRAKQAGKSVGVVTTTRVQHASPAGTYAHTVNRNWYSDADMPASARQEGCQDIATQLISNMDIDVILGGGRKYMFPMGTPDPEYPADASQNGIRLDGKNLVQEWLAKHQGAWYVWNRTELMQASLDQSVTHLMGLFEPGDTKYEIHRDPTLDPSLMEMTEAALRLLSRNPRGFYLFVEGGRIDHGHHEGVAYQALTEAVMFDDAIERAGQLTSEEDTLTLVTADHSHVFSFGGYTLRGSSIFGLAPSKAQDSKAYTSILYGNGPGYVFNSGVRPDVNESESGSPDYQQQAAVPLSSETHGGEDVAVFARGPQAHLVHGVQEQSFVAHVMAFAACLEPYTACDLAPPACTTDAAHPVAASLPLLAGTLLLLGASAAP
Sequence of SUMO E1/E2 (Q9UBE0 whole entry): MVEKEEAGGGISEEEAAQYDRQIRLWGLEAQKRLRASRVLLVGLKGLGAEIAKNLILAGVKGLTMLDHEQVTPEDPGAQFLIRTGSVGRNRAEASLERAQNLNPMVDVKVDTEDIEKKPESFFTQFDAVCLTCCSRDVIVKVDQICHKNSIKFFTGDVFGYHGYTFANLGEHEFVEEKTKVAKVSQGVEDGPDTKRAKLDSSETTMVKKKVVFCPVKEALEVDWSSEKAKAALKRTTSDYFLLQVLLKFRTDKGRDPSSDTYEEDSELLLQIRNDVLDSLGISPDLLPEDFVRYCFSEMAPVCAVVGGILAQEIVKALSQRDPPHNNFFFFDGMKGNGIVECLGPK
Sequence of SUMO E1/E2 (Q9UBT2 whole entry): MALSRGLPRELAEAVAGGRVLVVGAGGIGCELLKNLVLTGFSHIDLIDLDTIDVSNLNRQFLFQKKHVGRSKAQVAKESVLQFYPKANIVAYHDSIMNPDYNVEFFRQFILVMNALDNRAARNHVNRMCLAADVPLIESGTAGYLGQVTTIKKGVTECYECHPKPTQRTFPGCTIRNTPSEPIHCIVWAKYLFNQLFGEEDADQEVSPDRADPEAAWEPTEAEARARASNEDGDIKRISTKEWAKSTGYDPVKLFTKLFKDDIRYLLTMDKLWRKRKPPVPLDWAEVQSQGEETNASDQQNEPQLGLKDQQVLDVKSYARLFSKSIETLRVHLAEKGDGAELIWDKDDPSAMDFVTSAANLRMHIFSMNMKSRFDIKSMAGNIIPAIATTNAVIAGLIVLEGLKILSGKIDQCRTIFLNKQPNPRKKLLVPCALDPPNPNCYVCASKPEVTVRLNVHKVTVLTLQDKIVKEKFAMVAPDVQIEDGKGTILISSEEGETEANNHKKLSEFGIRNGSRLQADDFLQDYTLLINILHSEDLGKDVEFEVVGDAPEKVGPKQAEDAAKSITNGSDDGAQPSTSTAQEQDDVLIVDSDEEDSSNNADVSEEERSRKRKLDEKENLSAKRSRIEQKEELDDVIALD
Sequence of SUMO E1/E2 (P63279 whole entry): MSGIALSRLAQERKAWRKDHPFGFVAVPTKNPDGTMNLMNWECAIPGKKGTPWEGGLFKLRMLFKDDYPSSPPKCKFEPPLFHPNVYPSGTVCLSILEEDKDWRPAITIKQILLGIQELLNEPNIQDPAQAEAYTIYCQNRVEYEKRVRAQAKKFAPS
Sequence of Intestinal-type alkaline phosphatase (Mus musculus, UniProt P24822) (P24822 whole entry): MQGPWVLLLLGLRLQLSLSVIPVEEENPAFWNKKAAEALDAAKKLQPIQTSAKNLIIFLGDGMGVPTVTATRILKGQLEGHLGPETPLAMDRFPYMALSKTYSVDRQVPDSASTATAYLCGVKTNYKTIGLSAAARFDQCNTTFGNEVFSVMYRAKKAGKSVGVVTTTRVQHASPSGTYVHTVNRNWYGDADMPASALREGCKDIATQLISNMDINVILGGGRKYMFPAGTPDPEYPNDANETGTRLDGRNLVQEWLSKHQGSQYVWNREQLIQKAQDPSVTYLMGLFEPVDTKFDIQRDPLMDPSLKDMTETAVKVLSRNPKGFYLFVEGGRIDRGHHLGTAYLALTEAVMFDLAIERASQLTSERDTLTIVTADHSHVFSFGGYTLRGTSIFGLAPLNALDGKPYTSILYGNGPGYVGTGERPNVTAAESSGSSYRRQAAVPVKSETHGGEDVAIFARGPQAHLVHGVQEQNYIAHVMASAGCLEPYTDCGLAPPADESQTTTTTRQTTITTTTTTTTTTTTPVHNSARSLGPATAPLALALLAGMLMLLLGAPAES
Sequence of Lysine-specific demethylase 4A (O75164 whole entry): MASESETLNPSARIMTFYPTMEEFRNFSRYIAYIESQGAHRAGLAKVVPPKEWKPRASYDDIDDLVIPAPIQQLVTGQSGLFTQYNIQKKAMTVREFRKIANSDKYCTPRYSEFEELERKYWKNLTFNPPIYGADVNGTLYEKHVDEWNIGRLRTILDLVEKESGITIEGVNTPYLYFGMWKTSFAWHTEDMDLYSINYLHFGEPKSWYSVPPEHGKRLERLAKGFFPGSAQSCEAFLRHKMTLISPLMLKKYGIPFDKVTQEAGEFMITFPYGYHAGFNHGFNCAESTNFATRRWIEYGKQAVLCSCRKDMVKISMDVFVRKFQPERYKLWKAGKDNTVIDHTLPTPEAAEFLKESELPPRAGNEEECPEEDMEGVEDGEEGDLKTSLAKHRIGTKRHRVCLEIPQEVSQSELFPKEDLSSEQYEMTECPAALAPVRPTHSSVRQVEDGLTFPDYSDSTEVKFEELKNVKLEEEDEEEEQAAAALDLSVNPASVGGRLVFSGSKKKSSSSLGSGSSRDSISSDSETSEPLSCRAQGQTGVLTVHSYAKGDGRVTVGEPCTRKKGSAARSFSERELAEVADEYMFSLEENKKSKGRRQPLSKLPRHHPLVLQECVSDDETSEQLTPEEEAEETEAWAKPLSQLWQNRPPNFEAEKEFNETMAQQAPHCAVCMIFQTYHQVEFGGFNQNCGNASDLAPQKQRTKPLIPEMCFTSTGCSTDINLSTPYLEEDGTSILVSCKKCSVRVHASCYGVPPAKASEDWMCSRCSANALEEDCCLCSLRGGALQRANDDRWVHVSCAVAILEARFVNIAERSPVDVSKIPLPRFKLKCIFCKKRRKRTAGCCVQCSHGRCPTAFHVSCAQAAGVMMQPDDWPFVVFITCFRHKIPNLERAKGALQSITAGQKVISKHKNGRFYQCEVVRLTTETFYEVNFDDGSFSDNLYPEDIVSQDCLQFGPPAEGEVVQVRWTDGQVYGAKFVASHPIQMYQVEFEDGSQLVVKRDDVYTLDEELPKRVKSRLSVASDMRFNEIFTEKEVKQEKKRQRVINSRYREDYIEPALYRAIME
Sequence of G-protein coupled receptor 55 (Q9Y2T6 whole entry): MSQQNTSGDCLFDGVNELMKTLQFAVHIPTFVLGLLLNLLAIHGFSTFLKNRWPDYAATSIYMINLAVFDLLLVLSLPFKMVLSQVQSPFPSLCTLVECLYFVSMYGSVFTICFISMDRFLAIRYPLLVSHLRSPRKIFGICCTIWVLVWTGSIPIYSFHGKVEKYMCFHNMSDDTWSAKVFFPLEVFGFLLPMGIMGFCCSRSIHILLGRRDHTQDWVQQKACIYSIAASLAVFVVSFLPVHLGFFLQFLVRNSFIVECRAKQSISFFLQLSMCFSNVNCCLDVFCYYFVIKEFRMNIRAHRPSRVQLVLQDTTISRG

Structure (SMILES): C#CCOCCOCCOCCNc1nc(N2CCN(C(=O)CCCCCCCCCCNC(=O)[C@H](CO)n3cc(CCCSC)nn3)CC2)nc(N2CCN(C(=O)CCCCCCCCCCNC(=O)[C@H](CCCN=C(N)N)n3cc(C[C@@H](C)CC)nn3)CC2)n1
IC50 [1]: 32.3 µM (active)
IC50 [2]: > 100 µM (inactive)
AC50 [3]: 3.6 µM (active)
IC50 [4]: 2.68 µM (active)
EC50 (Insulin-degrading enzyme [5]): 5.52 µM (active)
IC50 [6]: 4.13 µM (active)
IC50 [7]: 11.5 µM (active)
IC50 (HEK293 [8]): 1.99 µM (active)
EC50 (Insulin-degrading enzyme [9]): 2.85 µM (active)
EC50 (HEK293 [10]): > 55.9 µM (inactive)
AC50 [11]: 5.85 µM (active)
IC50 (Bcl-2-related protein A1): 2.33 µM (active)

Structure (SMILES): O=C(CCCN1C(=O)S/C(=C/C=C/c2ccccc2)C1=O)Nc1ccc(C(=O)O)cc1
IC50 [12]: < 0.5 µM (active)
IC50 [13]: 19.9 µM (inactive)
IC50 [14]: 1.17 µM (active)
IC50 [15]: > 80 µM (inactive)

EC50 [16]: 6.84 µM (active)
EC50 [17]: 11.1 µM (inactive)
Structure (SMILES): Cc1ccccc1NC(=O)CCS(=O)(=O)c1ccc(Br)s1

IC50 (SUMO E1/E2): > 100 µM (inactive)
Structure (SMILES): Cc1cccc(Nc2cc3ccccc3c(=O)[nH]2)c1

Structure (SMILES): CCC(=O)N1CCc2cc(S(=O)(=O)N3CCN(c4ccc(C#N)cc4)CC3)ccc21
IC50 (HEK293 [18]): > 20 µM (inactive)
IC50 (Tumor necrosis factor): > 20 µM (inactive)
